Test results: publication PMC8795149, “Characterization of a novel non-steroidal glucocorticoid receptor agonist optimized for topical treatment” (Scientific Reports, 2022)

Experiments:
GR [1] = target: T1, GR (Homo sapiens, UniProt P04150); assay: Reversal of GR agonist-mediated suppression of cytokine release from LPS-stimulated PBMC by RU486; assay type: cell-based; set-up: endogenous in cells; conditions: 100 nM agonist
T1 sequence (P04150 1-777): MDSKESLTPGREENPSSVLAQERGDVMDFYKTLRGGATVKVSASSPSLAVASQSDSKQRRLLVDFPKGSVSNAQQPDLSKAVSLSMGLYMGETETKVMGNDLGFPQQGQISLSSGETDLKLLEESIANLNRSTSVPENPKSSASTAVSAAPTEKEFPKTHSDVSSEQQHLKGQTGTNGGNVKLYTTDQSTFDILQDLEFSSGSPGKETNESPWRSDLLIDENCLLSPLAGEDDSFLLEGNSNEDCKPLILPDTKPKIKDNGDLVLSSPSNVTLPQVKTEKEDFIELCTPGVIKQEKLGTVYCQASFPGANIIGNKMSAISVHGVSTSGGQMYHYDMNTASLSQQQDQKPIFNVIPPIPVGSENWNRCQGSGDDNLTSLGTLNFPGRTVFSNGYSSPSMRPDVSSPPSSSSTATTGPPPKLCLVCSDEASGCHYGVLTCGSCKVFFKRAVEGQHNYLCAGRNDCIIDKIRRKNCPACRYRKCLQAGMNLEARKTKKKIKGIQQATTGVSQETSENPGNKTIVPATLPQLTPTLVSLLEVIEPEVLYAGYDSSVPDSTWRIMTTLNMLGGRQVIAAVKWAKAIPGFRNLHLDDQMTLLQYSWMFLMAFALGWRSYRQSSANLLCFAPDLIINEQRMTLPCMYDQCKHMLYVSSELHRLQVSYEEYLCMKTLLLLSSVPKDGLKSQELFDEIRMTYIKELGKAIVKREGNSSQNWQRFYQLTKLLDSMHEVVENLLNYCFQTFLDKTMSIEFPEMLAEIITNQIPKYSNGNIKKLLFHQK
Method: PMBCs were isolated from human buffy coats obtained in accordance with national legislation and following in-house protocol at Charles River Laboratories (Leiden, Netherlands). Test compounds and PBMCs were incubated with 10 ng/ml LPS (Sigma) overnight at 37°C in HEPES and Glutamax-containing RPMI medium supplemented with 0.5% human serum albumin (human PBMCs) and penicillin/streptomycin. TNF-alpha, IL-1-beta, and IL-6 were measured by MSD multiplex assay (Meso Scale Discovery).Compound concentration in dermis (Figure S4)

[2] = test system: spleen weight, plasma osteocalcin, body weight; assay: TPA-induced skin inflammation in mice, systemic side effects; assay type: in vivo, mouse; conditions: for Reduction of body weight gain, spleen weight, and plasma osteocalcin levels: indicating systemic exposure; for Osteocalcin concentration ID50 / Osteocalcin concentration Imax: plasma; for Spleen weight ID50 / Spleen weight Imax: topical; for Suppression of osteocalcin levels at efficacious doses on skin inflammation: mouse TPA model
Method: Female Balb/c mice of 7 to 8 weeks old were obtained from Charles River, Germany and acclimatized for at least 1 week. Skin inflammation was induced by repeated topical application of TPA (20 μL of 0.01% TPA in acetone; 10 μL to each side of ear) on days 1, 3, 5, 8 and 10.
Treatments were performed by topical application of either vehicle (90% acetone, 10% transcutol), Treatments were applied twice daily on days 8, 9, 10, and once on day 11 (20–10 μL to each side of ear) with at least 5 h between the first and second treatment. TPA challenge on days 8 and 10 was performed at least 1 h after the first treatment. On day 11, animals were sacrificed 2 h after the last dosing. Blood was sampled by cardiac puncture from animals anaesthetized with isoflurane. Thereafter, ear biopsies were taken with a biopsy punch (8 mm diameter), weighed and stored at – 80 °C. Plasma osteocalcin levels were analyzed by EIA (rat-MID, IDS, UK). Effective inhibitory doses (ID50) were determined from a sigmoid I(max) model in Phoenix64, Pharsight, Certara. Therapeutic Index (TI) was calculated either as ID50 for spleen weight reduction or ID50 for blood osteocalcin concentrations, divided by ID50 for ear weight reduction.

GR [3] = target: T1, GR; assay: Transactivation assay, MMTV promoter luciferase in HeLa cells; assay type: cell-based; set-up: endogenous in cells; host or cells: HeLa (ATCC) stably expressing MMP1- or MMTV-promoter luciferase; conditions: for EC50: 20 h, geometric mean
Method: A HeLa cell line stably expressing luciferase under the control of the mouse mammary tumour virus (MMTV) promoter was generated. When the GR is activated by addition of a GR agonist, it forms a homodimer and binds to the MMTV promoter, t inducing transcription of the luciferase reporter gene. Briefly, cells were incubated with test compounds in culture medium containing charcoal-filtered fetal bovine serum for 20 h 37 °C 5% CO2. Finally, luciferase activity was detected luminometrically after addition of specific substrate to the cells.
IC50 of test compounds was determined by 10-point titrations in duplicates. IC50 values and other parameters were calculated by sigmoidal curve fitting in Assay Explorer.

GILZ mRNA = assay: Human skin explant, GILZ gene expression; assay type: cell-based; conditions: human skin explants, topical, 24 h; for GILZ Relative ED50: weighted geometric mean ± SD
Method: NativeSkin models (NS002) were purchased from Genoskin, France. Human skin samples from abdominal reduction surgery were obtained by Genoskin from donors upon written informed consent. Full ethical approval for the study protocol was obtained from the French ethical research committee (Comité de Protection des Personnes), and authorization was given by the French Ministry of Research. The study was conducted according to the Declaration of Helsinki. 8 mm punch biopsies were excised and embedded in a fibrin-based matrix in transwells and a silicone ring was firmly attached to the surface covering the outer edge of the skin biopsy to prevent lateral diffusion of topically applied formulations. Skin models were cultured in a defined hydrocortisone- and serum-free medium provided by Genoskin.
LEO 134310 and reference glucocorticoids were dissolved in propylene carbonate and tested at 4 concentrations in five- or tenfold titrations. Compounds were applied in duplicates or triplicates on the skin surface (0.5 cm^2) in a volume of 2 µL and incubated for 24 h. Vehicle and untreated samples were included for basal level of expression.
RNA was extracted and qPCR was performed using TaqMan gene expression assays (FKBP5-Hs01561006_m1, TSC22D3 (GILZ)-Hs00608272_m1, TXNIP-Hs01006900_g1, ACTB-Hs99999903_m1, PPIA-Hs99999904_m1, GAPDH-Hs99999905_m1). Gene expression of FKBP5,TSC22D3 (GILZ), and TXNIP was normalized to the geometric mean of the reference genes ACTB, PPIA and GAPDH.
Doses were expressed as compound (API) concentrations (µg/mL) in the applied formulations. Relative upregulation of FKBP5 was estimated as − fold to vehicle treated control. Effective doses (Emax and ED50) were determined from a sigmoid Emax model in Phoenix64 version 8.0, Pharsight, Certara. Mean values and standard deviation of Emax and ED50 were calculated by weighing individual experiments based on the intra- and inter-experiment variability.

[4] = TPA mouse model, CV (%) in brackets

SMILES | Reversal by GR antagonist RU486 of inhibition of LPS-induced cytokine release (GR [1]) | Therapeutic index (Osteocalcin ID50/Ear ID50) ([2]; TPA mouse model) | Therapeutic index (Spleen ID50/Ear ID50) ([2]; TPA mouse model) | Reduction of body weight gain, spleen weight, and plasma osteocalcin levels ([2]; TPA mouse model) | Osteocalcin concentration ID50 [2, 4] | Osteocalcin concentration Imax [2, 4] | Spleen weight ID50 [2, 4] | Spleen weight Imax [2, 4] | Suppression of osteocalcin levels at efficacious doses on skin inflammation [2] | Emax (GR [3]; MMTV promoter, HeLa cells) | EC50 (GR [3]; MMTV promoter, HeLa cells) | GILZ Emax (GILZ mRNA) | GILZ Relative ED50 (GILZ mRNA) | Higher therapeutic index (osteocalcin ID50 to ear weight ID50) compared to CP and BMV ([2]; TPA mouse model) | Higher therapeutic index (spleen weight ID50 to ear weight ID50) compared to CP and BMV ([2]; TPA mouse model) | Spleen weight ID50 (extrapolated) ([2]; TPA mouse model, ID50 could not be determined, value extrapolated, CV (%) in brackets) | Transactivation Emax (GR [3]; MMTV promoter, HeLa cells) | Transactivation EC50 relative to concentration needed for transrepression (GR [3]; higher concentration than needed for transrepression)
CCC(=O)O[C@]1(C(=O)CCl)[C@@H](C)C[C@H]2[C@@H]3CCC4=CC(=O)C=C[C@]4(C)[C@@]3(F)[C@@H](O)C[C@@]21C [CP, Clobetasol Propionate] | could be reversed in a concentration-dependent manner | 43 | 17 | dose-dependent reduction | 64 (17) µg/mL | 88 (4) % | 26 (27) µg/mL | 70 (8) % | did | 110% | 0.25 nM | 7.7 ± 2.5^NS fold to control | 1.1 ± 0.25^NS µg/mL | – | – | – | – | –
C[C@H](NC(=O)[C@H]1CCCO1)[C@H](Oc1ccc(C(=O)O[C@H]2CCCN(C(=O)[C@H]3COC(=O)C3)C2)cc1)c1ccc(C2CC2)cc1 [LEO 134310] | could be reversed in a concentration-dependent manner | > 200 | 49 | not—or only to a lesser extent | – | – | – | 42 (56) % | did not suppress osteocalcin levels | – | 410 nM | 6.7 ± 2.7^NS fold to control | 270 ± 110 µg/mL | > 5 fold | 2 fold | 25,000 (110) µg/mL | 95% | more than 300 fold
CCCCC(=O)O[C@]1(C(=O)CO)[C@@H](C)C[C@H]2[C@@H]3CCC4=CC(=O)C=C[C@]4(C)[C@@]3(F)[C@@H](O)C[C@@]21C [BMV, Betamethasone Valerate] | could be reversed in a concentration-dependent manner | 39 | 21 | dose-dependent reduction | 200 (24) µg/mL | 74 (10) % | 110 (25) µg/mL | 58 (9) % | did | 120% | 2.6 nM | 6.1 ± 3.7 fold to control | 5.1 ± 27 µg/mL | – | – | – | – | –
